The values that follow come from US10519152B2, “Compounds and their use in treating cancer” (AstraZeneca AB, priority 2017, dated 2019).

Each structure is given as a SMILES string.

This test deals with T1, recombinant human Estrogen Receptor alpha ligand binding domain, residues 307-554 (ER alpha-LBD (GST)) (Homo sapiens, UniProt P03372).
T1 construct: made in house
T1 sequence (P03372 307-554): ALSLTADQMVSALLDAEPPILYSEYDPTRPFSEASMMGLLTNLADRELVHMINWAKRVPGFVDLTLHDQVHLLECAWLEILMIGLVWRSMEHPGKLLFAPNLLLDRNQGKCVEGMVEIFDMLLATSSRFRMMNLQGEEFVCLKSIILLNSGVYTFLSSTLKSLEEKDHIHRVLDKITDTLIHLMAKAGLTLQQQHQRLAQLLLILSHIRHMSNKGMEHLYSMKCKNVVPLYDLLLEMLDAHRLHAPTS
Briefly: ERα binding assay (LanthaScreen TR-FRET competition). To be noted: TR-FRET competition with Fluormone ES2 tracer, 4 hours at room temperature; single experiment or average of two or more. (TR-FRET usually uses a lanthanide donor and a delayed reading to cut background.)

Turning to `Cc1ncsc1-c1ccc(CNC(=O)[C@@H]2C[C@@H](O)CN2C(=O)[C@@H](NC(=O)COCCOCCOCCOCC(=O)Nc2cc(F)c([C@@H]3c4[nH]c5ccccc5c4C[C@@H](C)N3CC(C)(C)F)c(F)c2)C(C)(C)C)cc1` [Example 68, N1-(3,5-difluoro-4-((1R,3R)-2-(2-fluoro-2-methylpropyl)-3-methyl-2,3,4,9-tetrahydro-1H-pyrido[3,4-b]indol-1-yl)phenyl)-N14-((S)-1-((2S,4R)-4-hydroxy-2-((4-(4-methylthiazol-5-yl)benzyl)carbamoyl)pyrrolidin-1-yl)-3,3-dimethyl-1-oxobutan-2-yl)-3,6,9,12-tetraoxatetradecanediamide], the IC50 turned out to be 1 nM. Take `Cc1ncsc1-c1ccc(CNC(=O)[C@@H]2C[C@@H](O)CN2C(=O)[C@@H](NC(=O)COCCOCCOCCOc2cc(F)c([C@@H]3c4[nH]c5ccccc5c4C[C@@H](C)N3CC(F)(F)CO)c(F)c2)C(C)(C)C)cc1` [Example 71, (2S,4R)-1-((S)-2-(tert-Butyl)-14-(4-((1R,3R)-2-(2,2-difluoro-3-hydroxypropyl)-3-methyl-2,3,4,9-tetrahydro-1H-pyrido[3,4-b]indol-1-yl)-3,5-difluorophenoxy)-4-oxo-6,9,12-trioxa-3-azatetradecanoyl)-4-hydroxy-N-(4-(4-methylthiazol-5-yl)benzyl)pyrrolidine-2-carboxamide]: the IC50 is 1.3 nM.

Consider `Cc1ncsc1-c1ccc(CNC(=O)[C@@H]2C[C@@H](O)CN2C(=O)[C@@H](NC(=O)COCc2cccc(CCCOc3cc(F)c([C@@H]4c5[nH]c6ccccc6c5C[C@@H](C)N4CC(C)(C)F)c(F)c3)c2)C(C)(C)C)cc1` [Example 74, (2S,4R)-1-((S)-2-(2-((3-(3-(3,5-Difluoro-4-((1R,3R)-2-(2-fluoro-2-methylpropyl)-3-methyl-2,3,4,9-tetrahydro-1H-pyrido[3,4-b]indol-1-yl)phenoxy)propyl)benzyl)oxy)acetamido)-3,3-dimethylbutanoyl)-4-hydroxy-N-(4-(4-methylthiazol-5-yl)benzyl)pyrrolidine-2-carboxamide], for which the IC50 is 0.8 nM. As for `Cc1ncsc1-c1ccc(CNC(=O)[C@@H]2C[C@@H](O)CN2C(=O)[C@@H](NC(=O)COCCOCCOCCOc2cc(F)c([C@@H]3c4[nH]c5ccccc5c4C[C@@H](C)N3CC3(F)CC3)c(F)c2)C(C)(C)C)cc1` [Example 77, (2S,4R)-1-((S)-2-(tert-Butyl)-14-(3,5-difluoro-4-((1R,3R)-2-((1-fluorocyclopropyl)methyl)-3-methyl-2,3,4,9-tetrahydro-1H-pyrido[3,4-b]indol-1-yl)phenoxy)-4-oxo-6,9,12-trioxa-3-azatetradecanoyl)-4-hydroxy-N-(4-(4-methylthiazol-5-yl)benzyl)pyrrolidine-2-carboxamide], the IC50 is 2.6 nM. As to `Cc1ncsc1-c1ccc(CNC(=O)[C@@H]2C[C@@H](O)CN2C(=O)[C@@H](NC(=O)COCCCCCCCOc2cc(F)c([C@@H]3c4[nH]c5ccccc5c4C[C@@H](C)N3CC(F)(F)CO)c(F)c2)C(C)(C)C)cc1` [Example 78, (2S,4R)-1-((S)-2-(2-((7-(4-((1R,3R)-2-(2,2-Difluoro-3-hydroxypropyl)-3-methyl-2,3,4,9-tetrahydro-1H-pyrido[3,4-b]indol-1-yl)-3,5-difluorophenoxy)heptyl)oxy)acetamido)-3,3-dimethylbutanoyl)-4-hydroxy-N-(4-(4-methylthiazol-5-yl)benzyl)pyrrolidine-2-carboxamide], the IC50 was determined as 0.5 nM.

For `Cc1ncsc1-c1ccc(CNC(=O)[C@@H]2C[C@@H](O)CN2C(=O)[C@@H](NC(=O)COCCCCCOc2cc(F)c([C@@H]3c4[nH]c5ccccc5c4C[C@@H](C)N3CC3(F)CC3)c(F)c2)C(C)(C)C)cc1` [Example 79, (2S,4R)-1-((S)-2-(2-((5-(3,5-difluoro-4-((1R,3R)-2-((1-fluorocyclopropyl)methyl)-3-methyl-2,3,4,9-tetrahydro-1H-pyrido[3,4-b]indol-1-yl)phenoxy)pentyl)oxy)acetamido)-3,3-dimethylbutanoyl)-4-hydroxy-N-(4-(4-methylthiazol-5-yl)benzyl)pyrrolidine-2-carboxamide], the IC50 stood at 0.9 nM.

One may read the IC50 as the concentration that inhibits the measured activity by half.
